US7879808B2, “Lincomycin derivatives and antimicrobial agents comprising the same as active ingredient” (Meiji Seika Kaisha, Ltd., priority 2007, dated 2011)
Converted amounts (≈) assume the structure as drawn.

How the values were obtained:
Assay type in all cases: cell-based
S. pneumoniae MSC07571 = experiment: MIC against S. pneumoniae MSC07571 (CLSI M7-A7 agar method); conditions: Sensitivity disk agar-N+5% horse aseptic defibranated blood, about 10^4 CFU/ml; for MIC: Streptococcus pneumoniae, read-out: minimal inhibitory concentration (MIC)
Description: (§1) For representative compounds among lincomycin derivatives according to the present invention, the minimal inhibitory concentration (MIC, […]) against various pneumococci was measured according to the method described in Clinical and Laboratory Standards Institute, M7-A7, 2006. Sensitivity disk agar-N+5% horse aseptic defibranated blood was used as the medium for the measurement. The amount of bacteria inoculated was about 10^4 CFU/ml.

S. pneumoniae MSC07465 = experiment: MIC against S. pneumoniae MSC07465 (CLSI M7-A7 agar method); set-up: unit not given here; conditions: Sensitivity disk agar-N+5% horse aseptic defibranated blood, about 10^4 CFU/ml
Description: as §1

S. pneumoniae MSC07471 = experiment: MIC against S. pneumoniae MSC07471 (CLSI M7-A7 agar method); set-up: unit not given here; conditions: Sensitivity disk agar-N+5% horse aseptic defibranated blood, about 10^4 CFU/ml
Description: as §1

S. pneumoniae MSC17994 = experiment: MIC against S. pneumoniae MSC17994 (CLSI M7-A7 agar method); set-up: unit not given here; conditions: Sensitivity disk agar-N+5% horse aseptic defibranated blood, about 10^4 CFU/ml
Description: as §1

S. pneumoniae MSC07365 = experiment: MIC against S. pneumoniae MSC07365 (CLSI M7-A7 agar method); set-up: unit not given here; conditions: Sensitivity disk agar-N+5% horse aseptic defibranated blood, about 10^4 CFU/ml
Description: as §1

S. pneumoniae MSC10197 = experiment: MIC against S. pneumoniae MSC10197 (CLSI M7-A7 agar method); set-up: unit not given here; conditions: Sensitivity disk agar-N+5% horse aseptic defibranated blood, about 10^4 CFU/ml
Description: as §1

S. pneumoniae MSC07337 = experiment: MIC against S. pneumoniae MSC07337 (CLSI M7-A7 agar method); set-up: unit not given here; conditions: Sensitivity disk agar-N+5% horse aseptic defibranated blood, about 10^4 CFU/ml
Description: as §1

MIC (S. pneumoniae MSC07571) | Structure (SMILES) | minimal inhibitory concentration (MIC) (S. pneumoniae MSC07465) | minimal inhibitory concentration (MIC) (S. pneumoniae MSC07471) | minimal inhibitory concentration (MIC) (S. pneumoniae MSC17994) | minimal inhibitory concentration (MIC) (S. pneumoniae MSC07571) | minimal inhibitory concentration (MIC) (S. pneumoniae MSC07365) | minimal inhibitory concentration (MIC) (S. pneumoniae MSC10197) | minimal inhibitory concentration (MIC) (S. pneumoniae MSC07337)
15 µg/mL (≈ 26.3 µM) | CCC[C@@H]1C[C@@H](C(=O)NC(C2OC(SC)C(O)C(O)C2O)[C@H](C)Sc2ccc(CCN(C)C)cc2)N(C)C1 (stereo partly shown) [Compound 1, 7-Deoxy-7-(4-(2-(dimethylamino)ethyl)phenylthio)-7-epilincomycin] |  |  |  |  |  |  | 
60 µg/mL (≈ 95.7 µM) | CCC[C@@H]1C[C@@H](C(=O)NC(C2OC(SC)C(O)C(O)C2O)[C@H](C)Sc2ccc(CCN(C)CCN(C)C)cc2)N(C)C1 (stereo partly shown) [Compound 10, 7-Deoxy-7-(4-(2-((2-(dimethylamino)ethyl)-(methyl)amino)ethyl)-phenylthio)-7-epilincomycin] |  |  |  |  |  |  | 
 | CSC1OC(C(NC(=O)[C@@H]2C[C@H](CC3CC3)CCN2C)C(C)Sc2ccc(CCN(C)C)nc2)C(O)C(O)C1O (stereo partly drawn) [Compound 52, Methyl 6-N-((2S,4R)-(4-cyclopropylmethyl-1-methyl)piperidine-2-carbonyl)-7-deoxy-7-(6-(2-(dimethylamino)ethyl)-pyridin-3-ylthio)-7-epi-1-thio-α-lincosamide] | 0.25 | 32 | 0.25 | 250 µg/mL (≈ 419 µM) | 64 | 0.25 | 32
 | CSC1OC(C(NC(=O)[C@@H]2C[C@H](CC3CC3)CCN2C)C(C)Sc2ccc(CCN(C)C3CC3)cc2)C(O)C(O)C1O (stereo partly drawn) [Compound 54, Methyl 7-(4-(2-(cyclopropyl(methyl)-amino)ethyl)phenyl-thio)-6-N-((2S,4R)-4-(cyclopropylmethyl)-1-methylpiperidine-2-carbonyl)-7-deoxy-7-epi-1-thio-α-lincosamide] | 0.015 | 2 | 0.06 | 30 µg/mL (≈ 48.2 µM) | 4 | 0.03 | 2
